Where a SMILES comes first, the peptide text is derived from it. The star is where a group is joined. Decanoyl = CCCCCCCCCC(=O)* A value given as a limit tells only on which side of the number the result lay.

The record followed here is article PMC8036666, “Biological and Physico-Chemical Characteristics of Arginine-Rich Peptide Gemini Surfactants with Lysine and Cystine Spacers” (International Journal of Molecular Sciences, 2021).

Data set [1] can be described thus: Lipopeptide hydrophobicity by RP-HPLC (adjusted retention time). Particulars: RP-HPLC, 20–65% acetonitrile over 30 min, indicator of hydrophobicity. Format: physicochemical. Put shortly:
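Analytical RP-HPLC on an embedded-polar-group RP-18 column, 20–65% acetonitrile gradient in water (both 0.1% TFA) over 30 min at 0.5 mL/min, 25.0 °C. Peptides at 1 mg/mL in 0.1% TFA water, UV detection at 214 nm. Triplicate runs.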

In data set [2] the test system is Staphylococcus aureus ATCC 33591. The following applies: planktonic culture.
Data set [3] deals with Acinetobacter baumannii ATCC BAA 1605. Particulars: ATCC BAA 1605, 24 h.
Data set [4] relates to Enterococcus faecium ATCC 700221. Particulars: planktonic culture.
Data set [5] deals with Klebsiella aerogenes ATCC 13048. The following applies: ATCC 13048, 24 h.
For data set [6], the system named is Klebsiella pneumoniae ATCC 700603. The following applies: ATCC 700603, 24 h.
Data set [7] deals with Pseudomonas aeruginosa ATCC 9027. The following applies: planktonic culture.
Data set [8] deals with Staphylococcus aureus ATCC 25923. Particulars: planktonic culture.
The test system of data set [9] is Acinetobacter baumannii ATCC BAA 1605. Format: cell-based. The following applies: ATCC BAA 1605, 24 h. Put shortly:
(§1)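 Biofilms grown 24 h at 37°C from 5.0 × 10^5 CFU/mL inocula in MHB, rinsed with PBS, then exposed to compounds at 1–512 μg/mL for 24 h at 37°C. Viability read by resazurin after 1 h (570/600 nm). MBEC is the lowest concentration giving ≤10 ± 0.5% reduction relative to controls; triplicates.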

The subject of data set [10] is Staphylococcus aureus ATCC 33591. The data set is classed as cell-based. Particulars: ATCC 33591, 24 h. The gist of the method:
as §1

With `CCCCCCCCCC(=O)N[C@@H](CCCNC(=N)N)C(=O)N[C@@H](CCCNC(=N)N)C(N)=O` [Compound A2, C10-RR-NH2] (Decanoyl-Arg-Arg-NH2), the “Adjusted Retention Time” value in data set [1] came out at 7.74 min. Moreover, in [2], the “MIC Staphylococcus aureus ATCC 33591” value was 256 (−/−) µg/mL. For the same compound, the “MIC Acinetobacter baumannii ATCC BAA 1605” value in [3] was >256 (−/−) µg/mL. Moreover, the “MIC Enterococcus faecium ATCC 700221” value in data set [4] was 256 (−/−) µg/mL. In addition, the “MIC Klebsiella aerogenes ATCC 13048” value in [5] was >256 (−/−) µg/mL. Further, the “MIC Klebsiella pneumoniae ATCC 700603” value in data set [6] is >256 (−/−) µg/mL. Moreover, the “MIC Pseudomonas aeruginosa ATCC 9027” value in [7] is >256 (−/−) µg/mL. For the same compound, the “MIC Staphylococcus aureus ATCC 25923” value in data set [8] was 256 (−/−) µg/mL. Besides, the “MBEC Acinetobacter baumannii ATCC BAA 1605” value in [9] was over 512 µg/mL. Moreover, the “MBEC Staphylococcus aureus ATCC 33591” value in data set [10] is 512 µg/mL.
